Here are results for seven compounds from paper PMC7472781, “Inherited and Acquired Determinants of Hepatic CYP3A Activity in Humans” (Frontiers in Genetics, 2020).

The subject of data set [1] is CYP3A. The data set is described as follows: Twin correlations and structural equation modeling (ACE, AE, CE) of heritability of the CYP3A biomarkers. The settings on record: for rdz (correlation between DZ twins) / rmz (correlation between MZ twins): unstructured model. The procedure:
(§1) Predefined primary endpoint was midazolam AUC. All concentrations and pharmacokinetic parameters were determined on three independent occasions to compare intra- versus interindividual variation. […] In structural equation modeling of heritability and in the other multifactorial analyses the individual means from the measurements or parameters obtained on the three occasions were used. Using structural equation analysis, variation was separated into additive genetic (A), common environmental (C), and unique environmental (E) effects. The heritability is the proportion of the variance resulting from the genetic effect (A). In order to investigate the genetic, common environmental, and unique environmental effects of the different traits taken into account, the possible correlation between traits were fitted in multivariate ACE, AE, and CE biometrical models using the mcglm package for multivariate regression analysis in R. As an exploratory analysis, we computed the correlation between MZ and DZ twins based on an unstructured (equal mean and variance for MZ and DZ twins) model. In all models, the mean structure for each trait was specified as a linear function of the covariates age and sex.

Data set [2] deals with CYP3A. Briefly: Within- and between-subject variance and genetic component (Kalow) of the 4 CYP3A biomarkers, three occasions. The settings on record: for Genetic component: from intra- and inter-individual variation, independent of twin status, AUC, plasma concentration or 24-h urine Ae. As to the method:
as §1

In data set [3] the test system is CYP3A. Briefly: Multifactorial analysis of genetic and environmental effects on the CYP3A probe drugs and biomarkers. The settings on record: in vivo. As to the method: DNA was isolated from whole venous blood by automated solid phase extraction with the EZ1^TM DNA Blood 350 μl Kit using the Bio-robot EZ1^TM (both Qiagen, Hilden, Germany). The CYP3A4^∗1b and ^∗22 alleles as well as the CYP3A5^∗1/^∗3 polymorphism were genotyped by DNA sequencing using fluorescence-labeled dideoxynucleotides and detection via Gene Mapper v3.7 Software® (Applied Biosystems®, Foster City, United States). Zygosity was assessed by analyzing variants in 23 polymorphic genes. Monozygosity was concluded when there were no differences regarding the polymorphisms in both siblings of one twin pair.
as §1

The subject of data set [4] is CYP3A. Briefly: clinical. The settings on record: for AUC: 0.2 mg midazolam i.v., zero to infinity; for AUC / Ratio 1-OH-midazolam/midazolam (AUC): value (range). As to the method: Midazolam was administered as a 2 min intravenous infusion with a total dose of 0.2 mg. The phenotyping test with midazolam was performed on three different occasions with a time interval of at least 1 week and maximally 3 months.
Pharmacokinetic parameters were estimated by non-compartmental analyses using the WinNonlin software (Pharsight Corporation, Mountain View, United States). The AUC from zero to infinity (AUC), was calculated by the linear/log trapezoidal rule and using the terminal elimination rate constant (lambda z). […] Total plasma clearance (Cl) after administration of midazolam was calculated as the ratio dose over AUC. Time (tmax) and amount of maximum plasma concentration (Cmax) were given as measured and the terminal half-life (t1/2) was calculated as t1/2 = ln(2)/lambda z.

For data set [5] the following is noted: other studies; ref Diczfalusy et al., 2008; cited from earlier work.
Data set [6] relates to CYP3A. Briefly: Endogenous CYP3A biomarker in plasma: cholesterol and 4ß-OH-cholesterol (GC-MS, baseline blood samples). The settings on record: for Plasma concentration / Ratio (cholesterol): value (range); for Ratio (cholesterol): plasma. As to the method: Briefly, 10 μl of plasma were spiked with 10 μg of cholesterol-d5 as internal standard. After saponification with 0.5 ml of 1 M NaOH in 90% ethanol at 70°C for 1 h, 250 μl of water were added and the samples extracted with 2 ml of n-hexane. An aliquot of 50 μl of the extract was evaporated to dryness and derivatized with 20 μl of N,O-bis(trimethylsilyl)trifluoroacetamide (BSTFA) for 30 min at room temperature.
Briefly, 1 ml of plasma was spiked with 10 μg of BHT and 50 ng of the internal standard 4ß-hydroxycholesterol-d4 and saponified with 2.5 ml of 1 M NaOH in 90% ethanol at 70°C for 1 h under argon and then extracted with 1 ml of water and 5 ml of chloroform. The chloroform phase was evaporated to dryness in a stream of nitrogen and the residue dissolved in 1 ml of toluene. […] The cartridges were washed with 1 ml of hexane and 10 ml of 2-propanol in hexane (0.5% v/v) and then eluted with 2 ml of 2-propanol in hexane (30% v/v). The eluate was evaporated to dryness in a stream of nitrogen and derivatized with 20 μl of BSTFA for 30 min at room temperature. GC was performed on a J&W DB-5MS column (25 m, 0.2 mm i.d., 0.33 μm film thickness; Agilent) in the splitless mode. For the analysis of cholesterol, the GC oven program started at 150°C and was held for 1 min. […] For the analysis of 4ß-hydroxycholesterol the GC oven program startet at 150°C and was held for 1 min. Temperature was increased with 10°C/min to 250°C, then with 30°C/min to 300°C.

Data set [7] has as its system CYP3A. Briefly: Endogenous CYP3A biomarker in 24-h urine: cortisol and 6ß-OH-cortisol (LC-MS-MS). The settings on record: value (range); for Amount in urine: 24 h urine; for Ratio (cortisol): urine.
Experimental: Cholesterol and 4ß-OH cholesterol were measured in the baseline blood samples before drug administration. All samples were centrifuged for 10 min (4000 rpm) at 4°C and the plasma was stored at −20°C.
Calibration samples for cholesterol were prepared in isooctane with 10% 2-propanol in the concentration range from 1 to 30 μg. Calibration samples for 4ß-hydroxycholesterol were prepared in isooctane with 0.8% 2-propanol from 5 to 100 ng. […] Calibration samples were worked up as the samples, and analyzed together with the unknown samples. […] The concentration in unknown samples was obtained from the regression line.
The test system of data set [8] is CYP3A. Conditions: cited from earlier work; for CYP3A activity increased: in vivo.

As usually defined, the half-life is the time in which the quantity being followed falls by half.

Values joined by “and” are separate entries in the source; they are usually repeats but may differ in a detail not shown here. Equal values may be shown once. Marks after values point to notes of the source that are not given here. A value given as a limit tells only on which side of the number the result lay.

In the case of `OCc1ncc2n1-c1ccc(Cl)cc1C(c1ccccc1F)=NC2` [1-OH-midazolam, 1′-hydroxymidazolam], in the data set with CYP3A [1] (ACE model), the “C^2 (common environmental effect)” value is given as 0.21 (0.23), the “H^2 (heritability)” value was 0.73 (0.23)* and the “Variation due to additive genetic (inherited) effects” value is listed as 73%. Further, the “H^2 (heritability)” value with CYP3A [1] (AE model) is reported as 0.94 (0.01)*. In the data set on CYP3A [1] (CE model), the “C^2 (common environmental effect)” value is listed as 0.78 (0.04)*. For the same compound, in the data set on CYP3A [1], the “rdz (correlation between DZ twins)” value is given as 0.59 (0.11)* and the “rmz (correlation between MZ twins)” value is reported as 0.94 (0.01)*. Also, the Genetic component with CYP3A [2] was 0.93 and 0.931. For the same compound, the “Variation that may be due to genetic factors (from genetic component)” value in the data set with CYP3A [2] (human, in vivo) is on record as “up to 93%”. For the same compound, in the data set with CYP3A [3], the “Coefficient, CYP3A4*22” value is listed as −12.53; the “Coefficient, CYP3A5*3” value is on record as 29.27; the “Coefficient, age” value was −1.78; the “Coefficient, lean body weight” value is on record as −1.74. In the data set on CYP3A [3], the “Coefficient, sex” value was 11.79; the “Coefficient, smoking status” value was 1.46; the “Coefficient, oral contraceptives” value is recorded as −31.33. In the data set on CYP3A [4] (DZ twins), the AUC is 73.31 (30.95 – 322.8) μg * min/L and the “Ratio 1-OH-midazolam/midazolam (AUC)” value is listed as 0.17 (0.07 – 0.54). Moreover, in the data set with CYP3A [4] (MZ twins), the AUC is 66.88 (33.75 – 195.6) μg * min/L and the “Ratio 1-OH-midazolam/midazolam (AUC)” value is on record as 0.15 (0.09 – 0.61). In addition, in the data set on CYP3A [4] (all subjects), the “AUC, inter-individual range” value is 30.95 – 322.8 μg∗min/L and the “Inter-individual variation in AUC” value is 10.4 fold. Moreover, the “AUC, mean” value in the data set with CYP3A [4] (all subjects, three occasions) was found to be 86.2 µg·min/L. Moreover, the “Intra-individual (between-days) mean coefficient of variation” value in the data set on CYP3A [4] (three occasions) is 12.3%.

As for `CC(C)CCC[C@@H](C)[C@H]1CC[C@H]2[C@@H]3CC=C4[C@@H](O)[C@@H](O)CC[C@]4(C)[C@H]3CC[C@]12C` [4ß-OH-cholesterol, 4ß-hydroxycholesterol], in the data set with CYP3A [1] (ACE model), the “C^2 (common environmental effect)” value was 0.22 (0.26), the “H^2 (heritability)” value was 0.56 (0.26)* and the “Variation due to additive genetic (inherited) effects” value is reported as 56%. Further, the “H^2 (heritability)” value in the data set on CYP3A [1] (AE model) is 0.79 (0.04)*. In the data set with CYP3A [1] (CE model), the “C^2 (common environmental effect)” value is listed as 0.74 (0.04)*. Further, in the data set with CYP3A [1], the “rdz (correlation between DZ twins)” value is 0.53 (0.12)* and the “rmz (correlation between MZ twins)” value is reported as 0.79 (0.04)*. The Genetic component in the data set on CYP3A [2] worked out at 0.812. Moreover, the “Variance between subjects (Varb) of plasma concentration” value in the data set on CYP3A [2] (human, in vivo) came to 86.5 ng/mL. Further, the “Variance within subjects (Varw) of plasma concentration” value in the data set with CYP3A [2] (three occasions) is 14.3 ng/mL. In the data set with CYP3A [3] (human), the “Coefficient, CYP3A4*22” value is listed as −8.21; the “Coefficient, CYP3A5*3” value is −6.30; the “Coefficient, age” value was found to be 0.16; the “Coefficient, sex” value is given as −3.32. Further, in the data set on CYP3A [3] (human, 0.2 mg), the “Coefficient, lean body weight” value is −0.20; the “Coefficient, smoking status” value is 3.28; the “Coefficient, oral contraceptives” value is reported as −2.57. In data set [5], the half-life is on record as at least 17 days. Besides, the Plasma concentration with CYP3A [6] (DZ twins) is 23.07 (15.12 – 46.77) ng/ml. In addition, the Plasma concentration with CYP3A [6] (MZ twins) is on record as 24.56 (12.59 – 62.96) ng/ml. Further, in the data set on CYP3A [6] (all subjects, three occasions), the “Plasma concentration, mean” value turned out to be 25.9 ng/mL. In the data set on CYP3A [6] (heterozygous carriers of active CYP3A5*1), this compound returned a Median plasma level of 30.69 ng/mL. Also, the Median plasma level with CYP3A [6] (homozygous carriers of CYP3A5*3) came out at 23.01 ng/mL.

For `CC(C)CCC[C@@H](C)[C@H]1CC[C@H]2[C@@H]3CC=C4C[C@@H](O)CC[C@]4(C)[C@H]3CC[C@]12C` [Cholesterol, cholesterol], the “Ratio (cholesterol)” value is given as 0.17 (0.12 – 0.25) in the data set on CYP3A [6] (DZ twins) and 0.17 (0.01 – 0.35) in the data set on CYP3A [6] (MZ twins). Also, the Plasma concentration in the data set on CYP3A [6] (DZ twins) is listed as 1.38 (0.94 – 2.12) mg/ml; with CYP3A [6] (MZ twins), 1.39 (0.86 – 1.99) mg/ml.

As to `C[C@]12CCC(=O)C=C1CC[C@@H]1[C@@H]2[C@@H](O)C[C@@]2(C)[C@H]1CC[C@]2(O)C(=O)CO` [Cortisol, cortisol], in the data set with CYP3A [7] (DZ twins), the Amount in urine was 32.14 (11.10 – 90.00) μg and the “Ratio (cortisol)” value is given as 6.75 (3.38 – 18.22). Further, in the data set on CYP3A [7] (MZ twins), the Amount in urine is listed as 35.85 (10.05 – 142.80) μg and the “Ratio (cortisol)” value was 6.29 (3.09 – 14.65).

Regarding `NC(=O)N1c2ccccc2C=Cc2ccccc21` [carbamazepin], the CYP3A activity increased result in the data set on CYP3A [8] is given as “up to 10 fold”.

Turning to `CCC(C)n1ncn(-c2ccc(N3CCN(c4ccc(OCC5COC(Cn6cncn6)(c6ccc(Cl)cc6Cl)O5)cc4)CC3)cc2)c1=O` (stereo not shown) [itraconazole], the “CYP3A activity reduced to” value in the data set on CYP3A [8] (strong inhibitors, ref Kim et al., 2006, Greenblatt and Harmatz, 2015) is 10%.

In the case of `CCC1(c2ccccc2)C(=O)NC(=O)NC1=O` [phenobarbital], in the data set with CYP3A [8], the CYP3A activity increased result was “up to 10 fold”.
